# Patent US9428507B2, “Compounds for the treatment of malaria” (The Broad Institute, Inc., priority 2013, dated 2016)
# System: Dd2 strain of P. falciparum
# Test: Activity against the Dd2 strain of P. falciparum (SYBR Green I, 72-h incubation)
# Format: cell-based
# Details: Plasmodium falciparum, DD2, 72 h, read-out: EC^50 Dd2
# Protocol: The Dd2 strain of P. falciparum was cultured in complete medium (RPMI with L-glutamine, 4.3% heat-inactivated O-positive human serum, 2.08 mg/ml albumax, 0.013 mg/ml hypoxanthine, 1.17 mg/ml glucose, 0.18% NaHCO3, 0.031 M Hepes, 2.60 mM NaOH, and 0.043 mg/ml gentamicin) until the parasitemia reached 3-8%. Parasitemia was determined by checking at least 500 red blood cells from a Giemsa-stained blood smear. The Dd2 cultures along with tested O-positive red blood cells are centrifuged at room temperature at 2,000 rpm for 5 min using an Eppendorf centrifuge 581 OR with an A-4-81 rotor. The medium was aspirated off. For the compound screening, a parasite dilution at a 1% parasitemia and 1.0% hematocrit was created with screening medium (RPMI with L-glutamine, 4.16 mg/ml albumax II, 0.013 mg/ml hypoxanthine, 1.73 mg/ml glucose, 0.18% NaHCO3, 0.031M Hepes, 2.60 mM NaOH, and 0.043 mg/ml gentamicin). The suspension was gassed with 93% nitrogen, 4% carbon dioxide, and 3% oxygen and placed at 37° C. until needed. Using a liquid dispenser, 20 μl of screening medium was dispensed into 384-well, black, clear-bottom plates. With a PinTool, 100 nl of compounds dissolved in DMSO was transferred into the assay plates along with control compound (mefloquine). Next, 30 μl of the parasite suspension in screening medium was then dispensed into the assay plates such that the final parasitemia was 1%, and the final hematocrit was 1.0%. Final concentration of DMSO was 0.125%. Mefloquine at a final concentration of 20 μM and DMSO at a final concentration of 0.125% were used within the assay plates to serve as background and baseline controls, respectively. The assay plates were transferred to incubators (93% nitrogen, 4% carbon dioxide, and 3% oxygen during the 72-h incubation at 37° C.). Ten microliters of detection reagent consisting of 1 OX SYBR Green I (Invitrogen; supplied in 10,000× concentration) in lysis buffer (20 mM Tris-HCl, 5 mM EDTA, 0.16% Saponin wt/vol, 1.6% Triton X vol/vol) was dispensed into the assay plates. For optimal staining, the assay plates were left at room temperature for 24 h in the dark. The assay plates were read by using an Envision (PerkinElmer) reader, with 505 dichroic mirrors with 485-nm excitation and 530-nm emission settings, and the plate reads were from the bottom.
row,EC50 [nM],Structure (SMILES)
1,221,"CCCS(=O)(=O)N1CC2(CCN(C(=O)Nc3ccccc3F)CC2)c2c([nH]c3cc(OC)ccc23)[C@@H]1CO [Compound 149, (R)-N-(2-fluorophenyl)-1′-(hydroxymethyl)-7′-methoxy-2′-(propylsulfonyl)-1′,2′,3′,9′-tetrahydrospiro [piperidine-4,4′-pyrido[3,4-b]indole]-1-carboxamide]"
2,2400,"COc1ccc2c3c([nH]c2c1)[C@H](CO)N(C(=O)C(C)(C)C)CC31CCN(C(=O)Nc2ccccc2F)CC1 [Compound 23, (R)-N-(2-fluorophenyl)-1′-(hydroxymethyl)-7′-methoxy-2'-pivaloyl-1′,2′,3′,9′-tetrahydrospiro[piperidine-4,4′-pyrido[3,4-b]indole]-1-carboxamide]"
3,1040,"COc1ccc2c3c(n(C)c2c1)[C@@H](CO)N(C(=O)c1ccccc1)CC31CCN(C(=O)c2ccccc2)CC1 [Compound 115, (S)-(1′-(hydroxymethyl)-7′-methoxy-9′-methylspiro [piperidine-4,4′-pyrido[3,4-b]indol]-1,2′(1′ H,3′H,9′H)-diyl)bis(phenylmethanone)]"
4,269,"COc1ccc2c3c([nH]c2c1)[C@H](CO)N(S(=O)(=O)C(F)(F)F)CC31CCN(C(=O)Nc2ccccc2F)CC1 [Compound 146, (R)-N-(2-fluorophenyl)-1′-(hydroxymethyl)-7′-methoxy-2′-((trifluoromethyl)sulfonyl)-1′,2′,3′,9′-tetrahydrospiro [piperidine-4,4′-pyrido[3,4-b]indole]-1-carboxamide]"
5,2470,"COc1ccc2c3c([nH]c2c1)[C@H](CO)N(C(C)=O)CC31CCN(c2nc3ccccc3[nH]2)CC1 [Compound 136, (R)-1-(1-(1H-benzo[d]imidazol-2-yl)-1′-(hydroxymethyl)-7′-methoxyspiro[piperidine-4,4′-pyrido[3,4-b]indol]-2′(1′H,3′H,9′H)-yl) ethanone]"
6,3040,"COCOC[C@H]1c2[nH]c3cc(OC)ccc3c2C2(CCN(C(=O)Nc3ccccc3F)CC2)CN1C(C)=O [Compound 67, (R)-2′-acetyl-N-(2-fluorophenyl)-7′-methoxy-1′-((methoxymethoxy)methyl)-1′,2′,3′,9′-tetrahydrospiro [piperidine-4,4′-pyrido[3,4-b]indole]-1-carboxamide]"
7,1100,"CCC(=O)N1CC2(CCN(C(=O)Nc3ccccc3F)CC2)c2c([nH]c3cc(OC)ccc23)[C@H]1CO [Compound 113, (S)-N-(2-fluorophenyl)-1′-(hydroxymethyl)-7′-methoxy-2′-propionyl-1′,2′,3′,9′-tetrahydrospiro [piperidine-4,4′-pyrido[3,4-b]indole]-1-carboxamide]"
8,415,"COc1ccc2c3c([nH]c2c1)C(C)(C)N(C(C)=O)CC31CCN(C(=O)OC(C)(C)C)CC1 [Compound 14, tert-butyl 2′-acetyl-7′-methoxy-1′,1′-dimethyl-1′,2′,3′,9′-tetrahydrospiro [piperidine-4,4′-pyrido[3,4-b]indole]-1-carboxylate]"
9,1080,"COc1ccc2c3c([nH]c2c1)[C@H](CO)N(S(=O)(=O)c1ccc(C)cc1)CC31CCN(C(=O)Nc2ccccc2F)CC1 [Compound 144, (R)-N-(2-fluorophenyl)-1′-(hydroxymethyl)-7′-methoxy-2′-tosyl-1′,2′,3′,9′-tetrahydrospiro [piperidine-4,4′-pyrido[3,4-b]indole]-1-carboxamide]"
10,2430 to 6330,"COc1ccc2c3c([nH]c2c1)[C@H](CN1CCOCC1)N(C(C)=O)CC31CCN(C(=O)OC(C)(C)C)CC1 [Compound 46, (S)-tert-butyl 2′-acetyl-7′-methoxy-1′-(morpholinomethyl)-1′,2′,3′,9′-tetrahydrospiro[piperidine-4,4′-pyrido[3,4-b]indole]-1-carboxylate]"
11,834,"COc1ccc2c3c(n(C)c2c1)[C@H](COC(C)=O)N(C(C)=O)CC31CCN(C(=O)Nc2ccccc2F)CC1 [Compound 17, (R)-(2′-acetyl-1-((2-fluorophenyl)carbamoyl)-7′-methoxy-9′-methyl-1′,2′,3′,9′-tetrahydrospiro[piperidine-4,4′-pyrido[3,4-b]indol]-1′-yl)methylacetate]"
12,2980,"COc1ccc2c3c([nH]c2c1)[C@H](CO)N(C(=O)C1CC1)CC31CCN(C(=O)Nc2ccccc2F)CC1 [Compound 33, (R)-2′-(cyclopropanecarbonyl)-N-(2-fluorophenyl)-1′-(hydroxymethyl)-7′-methoxy-1′,2′,3′,9′-tetrahydrospiro[piperidine-4,4′-pyrido[3,4-b]indole]-1-carboxamide]"
13,2230 to 3230,"COc1ccc2c3c([nH]c2c1)[C@@H]1COCC(=O)N1CC31CCN(C(=O)Nc2ccccc2F)CC1 [Compound 47, (R)-N-(2-fluorophenyl)-10-methoxy-4-oxo-1,3,4,6,12,12b-hexahydrospiro[[1,4]oxazino[4′,3′:1 ,2]pyrido[3,4-b]indole-7,4′-piperidine]-1′-carboxamide]"
14,490,"COc1ccc2c3c([nH]c2c1)[C@H](CO)NCC31CCN(C(=O)Nc2ccc3c(c2)OCO3)CC1 [Compound 102, (R)-N-(benzo[d] [1,3]dioxol-5-yl)-1′-(hydroxymethyl)-7′-methoxy-1′,2′,3′,9′-tetrahydrospiro [piperidine-4,4′-pyrido[3,4-b]indole]-1-carboxamide]"
15,4430,COc1ccc2c3c([nH]c2c1)C(C)(C)NCC31CCN(C(=O)OC(C)(C)C)CC1 [Compound 11]
16,794,COc1ccc2c3c(n(C)c2c1)[C@@H](CO)N(C(=O)c1ccc(F)cc1)CC31CCN(C(=O)Nc2ccc(F)cc2)CC1 [Compound 129]
17,4490 to 9480,"COc1ccc2c3c([nH]c2c1)[C@H](CO)N(CC(F)(F)F)CC31CCN(C(=O)Nc2ccccc2F)CC1 [Compound 62, (R)-N-(2-fluorophenyl)-1′-(hydroxymethyl)-7′-methoxy-2′-(2,2,2-trifluoroethyl)-1′,2′,3′,9′-tetrahydrospiro[piperidine-4,4′-pyrido[3,4-b]indole]-1-carboxamide]"

row,Structure (SMILES),EC50 [nM]
1,"COc1ccc2c3c([nH]c2c1)[C@H](CO[Si](C)(C)C(C)(C)C)N(C(C)=O)CC31CCNCC1 [Compound 25, (R)-1-(1′-(((tert-butyldimethylsilyl)oxy)methyl)-7′-methoxyspiro[piperidine-4,4′-pyrido[3,4-b]indol]-2′(1′H,3′H,9′H)-yl)ethanone]",1620
2,"COc1ccc2c3c([nH]c2c1)[C@@H](CO)N(Cc1ccncc1)CC31CCN(Cc2ccc(-c3ccccn3)cc2)CC1 [Compound 133, (S)-(7′-methoxy-1-(4-(pyridin-2-yl)benzy1)-2′-(pyridin-4-ylmethyl)-1′,2′,3′,9′-tetrahydrospiro [piperidine-4,4′-pyrido[3,4-b]indol]-1′-yl)methanol]",613
3,"COc1ccc2c3c([nH]c2c1)[C@H](CO)N(C(=O)C1CCCCC1)CC31CCN(Cc2nccs2)CC1 [Compound 103, (R)-cyclohexyl (1′-(hydroxymethyl)-7′-methoxy-1-(thiazol-2-ylmethyl)spiro[piperidine-4,4′-pyrido[3,4-b]indol]-2′(1′H,3′H,9′H)-yl)methanone]",182
4,COc1ccc2c3c([nH]c2c1)[C@H](CO)N(Cc1ccccn1)CC31CCN(Cc2cccc(F)c2)CC1 [Compound 122],421
5,"COc1ccc2c3c([nH]c2c1)[C@H](CO)N(C(C)=O)CC31CCN(CCc2ccccc2F)CC1 [Compound 27, (R)-1-(1-(2-fluorophenethyl)-1′-(hydroxymethyl)-7′-methoxyspiro[piperidine-4,4′-pyrido[3,4-b]indol]-2′(1′H,3′H,9′H)-yl) ethanone]",2730
6,"CCCN1CCC2(CC1)CN(Cc1ccccc1OC)[C@H](CO)c1c2c2ccc(OC)cc2n1C [Compound 92, (S)-(7′-methoxy-2′-(2-methoxybenzyl)-9′-methyl-1-propyl-1′,2′,3′,9′-tetrahydrospiro [piperidine-4,4′-pyrido[3,4-b]indol]-1′-yl) methanol]",681
7,"COc1ccc2c3c(n(C)c2c1)[C@@H](CO)N(Cc1ccc(Cl)cc1)CC31CCN(CC2CC2)CC1 [Compound 132, (S)-(2′-(4-chlorobenzyl)-1-(cyclopropylmethyl)-7′-methoxy-9′-methyl-1′,2′,3′,9′-tetrahydrospiro [piperidine-4,4′-pyrido[3,4-b]indol]-1′-yl) methanol]",1670
